Experimental data taken from US12233056B2, “Lysyl oxidase inhibitors for treating myeloid malignancies” (Syntara Limited, priority 2022, dated 2025).

What was measured:
[1] = tested on: in vitro co-cultured, patient derived, MSC/HSC cells; assay: Erythroid differentiation in in vitro co-cultured, patient derived MSC/HSC cells; format: cell-based, human; conditions: 2 μM PXS-5505, 100 nM 5-AZA daily; flow cytometry after 14 days; n=3; FIG. 1
Source text: Healthy CD34+ cells were isolated from hip replacement surgery bone specimen (old CD34+ cells) or collected by iliac crest puncture of healthy volunteers (young CD34+ cells). Approval for collection of patient samples was given by the Institutional Review Board of the Medical Faculty Mannheim, University of Heidelberg, Germany, in accordance with the declaration of Helsinki. All patients were informed and provided written consent for sample collection. Mononuclear cells (MNC) were isolated from bone marrow by Ficoll density gradient. CD34+ cells from MNC were isolated using MACS enrichment columns (Miltenyi Biotec, Bergisch Gladbach, Germany) according to the manufacturer's instructions as described. Purity of the CD34+ populations were confirmed by FACS analysis to be >95%. These were then viably frozen and thawed immediately before xenotransplantation.
Mesenchymal stromal cells (MSC) were isolated from residual diagnostic material and selected via their plastic adherence properties in culture. MSC were expanded in NH-Expansion medium (Miltenyi Biotec) and cultured to a maximum of 4 passages. Ex-vivo expanded MSCs were FACS analyzed to confirm adherence to the minimal criteria for defining multipotent mesenchymal stromal cells as described in [Medyouf, 2014]. […]

[2] = tested on: erythroid differentiation (the CD235a+ and CD45− population) in the bone marrow collected from xenotransplanted mice; assay: Xenotransplantation model: erythroid differentiation from bone marrow of xenotransplanted mice; format: in vivo; conditions: 5-AZA 75 mg/m2 5+2 schedule, 3 cycles; PXS-5505 30 mg/kg every 48 h; 3 months; FIG. 2
Method: Female immunocompromised mice (NSG and NSGS, Jackson Laboratory) aged 6-8 week old were sub-lethally irradiated (200 cGy) before intrafemoral injections with a mix of CD34+ and MSCs cells (1×10^5:5×10^5) from primary myelofibrosis patients (with grade 3 fibrosis) as described previously [Medyouf, 2014]. The mice were treated with 5-AZA (75 mg/m^2 5+2 schedule, 3 cycles in total) and/or PXS-5505 (30 mg/kg every 48 h for the duration of 5-AZA treatment) for 3 months. At endpoint human CD45+ cells were FACS-sorted from mouse bone marrow. The CD45+ cells were differentiated in the medium supplemented with 5 U/mL EPO, 100 ng/mL SCF and 5 ng/mL IL-3 for 21 days followed by flow cytometry analysis for CD235a and CD45 markers as described previously.
Furthermore, it presents the rescue erythroid differentiation for a variety of different disease subtypes of myelodysplastic syndrome, chronic myelomonocytic leukemia and acute myeloid leukemia.

`NC/C=C(\F)CS(=O)(=O)c1cccc2cccnc12` [PXS-5505] was tested, and the “erythroid differentiation (CD235a+, CD45− cells)” value [1] was “could rescue erythropoiesis” and the “erythroid differentiation (CD235a+ and CD45− population) in bone marrow from xenotransplanted mice” value [2] was “could rescue erythropoiesis”.
